Read-outs that look alike come from different tables or passages of the source.
How the values were obtained:
[1] = tested on: PRP de lapin; assay: platelet aggregation in vitro induced by ADP in rabbit PRP; assay type: cell-based; settings: Oryctolagus cuniculus, 100 microg/ml, d'ADP, read-out: activité (agrégation plaquettaire induite par ADP)
Protocol: (§1) L'activité antiagrégante plaquettaire a été déterminée in vitro. Quand l'agrégation est induite par 0,05 ml d'une préparation standardisée de collagène bovin dans un plasma riche en plaquettes (PRP) de lapin, le COR37 06C entraine 100 % d'inhibition à 1 microg/ml alors que l'aspirine dans les mêmes conditions est active à 10 microg/ml et l'indométacine à 0,5 microg/ml. Dans le modèle de l'agrégation plaquettaire induite par […] d'ADP dans un PRP de lapin, à 100 microg/ml, le COR37 09C entraine 79 % d'activité, le COR37 50C entraine 80 % d'activité et l'adénosine 64 %.

[2] = acute toxicity, oral administration, solution in Tween; settings: mouse, in vivo, souris, voie orale; for mortality: solution dans le Tween, read-out: mortalité
Protocol: (§2) La toxicité a été déterminée chez la souris. En solution dans le Tween et après administration par voie orale le COR37 05C entraine 0 % de mortalité à 500 mg/kg, 40 % à 750 et 40 % à 1000; le COR37 06C entraine 0 % de mortalité à 100 mg/kg, 10 % à 200, 10 % à 250, 90 % à 375, 100 % à 500 (DL50 = 294 mg/kg (261-332); les COR37 09C, COR37 49C et COR37 50C entrainent 0 % de mortalité à 300 mg/kg. En solution dans le Tween et après administration par voie intrapéritonéale le COR37 05C entraine 0 % de

[3] = tested on: souris; assay: acute toxicity, intraperitoneal administration, solution in Tween; assay type: in vivo; settings: voie intrapéritonéale, 200 mg/kg, solution dans le Tween
[4] = tested on: oreillette gauche de cobaye; assay: calcium-antagonist activity in vitro, electrically stimulated guinea pig left atrium in low-calcium Tyrode; assay type: cell-based; settings: 100 Microg/ml; 150 battements/mn, Tyrode pauvre en calcium (0,6mM), addition de 0,6 mM de calcium
Protocol: L'activité anticalcique a été déterminée in vitro sur oreillette gauche de cobaye stimulée électriquement à 150 battements/mn dans une solution de Tyrode pauvre en calcium (0,6mM).

[5] = tested on: souris rendue hypercholestérolémique; assay: hypolipidaemic activity, hypercholesterolaemic mouse (cholesterol and cholic acid diet, 7 days); assay type: in vivo; settings: voie orale le 6e et le 7e jour, 400 mg/kg
Protocol: L'activité hypolipidémiante a été mise en évidence chez la souris rendue hypercholestérolémique par un régime riche en cholestérol et acide cholique pendant 7 jours. Ainsi l'administration par voie orale du COR37 49C le 6e et le 7e jour, entraine une diminution du cholestérol sérique de 22 % à la dose de 400 mg/kg.

[6] = tested on: rat en surcharge hydrique; assay: diuretic activity, water-loaded rat; assay type: in vivo; settings: dose orale de 20 mg/kg, fold factor
Protocol: L'activité diurétique a été déterminée chez le rat. Ainsi le COR37 49C administré au rat en surcharge hydrique à la dose orale de 20 mg/kg multiplie par 2,2 l'excrétion urinaire de sodium.

[7] = target: T1, H2 (Cavia porcellus, UniProt P47747); assay: anti-H2 antihistaminic activity in vitro, unstimulated guinea pig right atrium; assay type: cell-based; settings: 25 microg/ml; 5 microg/ml d'histamine, oreillette droite de cobaye non stimulée; read-out: inhibition de l'effet chronotrope induit par l'histamine
T1 construct: sur l'oreillette droite de cobaye non stimulée; from tissue; host or cells: guinea pig right atrium, unstimulated
T1 sequence (P47747 whole entry): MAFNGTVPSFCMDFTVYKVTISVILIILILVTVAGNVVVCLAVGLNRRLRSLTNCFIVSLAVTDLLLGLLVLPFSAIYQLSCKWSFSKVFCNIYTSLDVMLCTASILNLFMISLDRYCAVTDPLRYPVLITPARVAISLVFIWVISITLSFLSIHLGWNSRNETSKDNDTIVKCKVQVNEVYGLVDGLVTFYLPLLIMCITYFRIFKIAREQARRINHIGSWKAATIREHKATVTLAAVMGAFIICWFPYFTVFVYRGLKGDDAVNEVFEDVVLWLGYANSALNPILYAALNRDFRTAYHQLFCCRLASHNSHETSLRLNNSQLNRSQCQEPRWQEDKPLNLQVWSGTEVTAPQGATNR
Text: L'activité antihistaminique antiH2 a été mise en évidence in vitro. A la concentration de 25 microg/ml le COR37 49C inhibe à 50 % l'effet chronotrope induit par 5 microg/ml d'histamine sur l'oreillette droite de cobaye non stimulée.

[8] = target: T2, Hl (Cavia porcellus, UniProt P31389); assay: anti-H1 antihistaminic activity in vitro, guinea pig ileum; assay type: cell-based; settings: 25 microg/ml; iléon de cobaye; read-out: inhibition des contractions induites par l'histamine
T2 construct: in vitro sur iléon de cobaye; from tissue; host or cells: guinea pig ileum
T2 sequence (P31389 whole entry): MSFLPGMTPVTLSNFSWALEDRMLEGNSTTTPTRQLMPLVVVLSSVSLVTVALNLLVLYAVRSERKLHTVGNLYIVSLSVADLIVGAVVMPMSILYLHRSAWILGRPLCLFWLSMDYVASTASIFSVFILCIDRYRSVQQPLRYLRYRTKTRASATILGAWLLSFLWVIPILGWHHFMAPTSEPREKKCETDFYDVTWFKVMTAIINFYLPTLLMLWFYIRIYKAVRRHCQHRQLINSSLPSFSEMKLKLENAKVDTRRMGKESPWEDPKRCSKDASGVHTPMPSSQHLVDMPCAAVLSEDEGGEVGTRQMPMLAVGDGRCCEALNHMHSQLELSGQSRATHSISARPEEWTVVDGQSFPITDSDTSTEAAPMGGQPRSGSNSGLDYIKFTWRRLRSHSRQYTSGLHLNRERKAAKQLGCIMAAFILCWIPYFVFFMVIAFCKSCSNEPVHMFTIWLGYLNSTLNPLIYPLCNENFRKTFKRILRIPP
Text: L'activité antihistaminique antiHl a été mise en évidence in vitro sur iléon de cobaye. Le COR37 49C employé à la concentration de 25 microg/ml inhibe à 80 % les contractions induites par l'histamine.

[9] = acute toxicity, intraperitoneal administration, solution in Tween; assay type: in vivo; settings: mouse, in vivo, ip, souris, voie intrapéritonéale, solution dans le Tween, read-out: mortalité
[10] = tested on: souris soumise à une anesthésie chloroformique profonde; assay: antiarrhythmic activity, mouse under deep chloroform anaesthesia; assay type: in vivo; settings: ip, read-out: dose active (activité antiarythmique)
Protocol: L'activité antiarythmique a été déterminée sur plusieurs modèles expérimentaux. Dans le modèle de la souris soumise à une anesthésie chloroformique profonde le COR37 05C et le COR37 06C présentent après administration intrapéritonéale une activité antiarythmique dès la dose de 25 mg/kg; le COR37 50C est actif sur ce même modèle à 100 mg/kg. Le propranolol est actif dans les mêmes conditions à la dose de 40 mg/kg et la quinidine à la dose de 100 mg/kg.

[11] = tested on: oreillette isolée de cobaye stimulée électriquement; assay: antiarrhythmic activity in vitro, electrically stimulated isolated guinea pig atrium; assay type: cell-based; settings: read-out: Ci30
Text: In vitro dans le modèle de l'oreillette isolée de cobaye stimulée électriquement le COR37 05C et le COR37 06C sont actifs avec des Ci30 de respectivement 6,22 (4,37-8,86) 10^-6 M/1 et 7,26.10^-6 (4,68.10^-6-1,12.10^-5) M/1 contre 10^-5 M/1 pour la procaïne, 4.10^-6 M/1 pour la quinidine et 4,5.10^-6 M/l pour le propranolol.

[12] = tested on: arythmies induites par l'aconitine; assay: aconitine-induced arrhythmias in the rat; assay type: in vivo; settings: for pourcentage d'animaux ne présentant pas de fibrilloflutters: voie orale
Protocol: Ces produits ont été testés dans le modèle des arythmies induites par l'aconitine chez le rat. Les résultats sont exprimés par le pourcentage d'augmentation de la quantité d'aconitine provoquant l'apparition d'extrasystoles (E), de fibrilloflutters (F), de tachycardies (T) et de morts (M). Administrés par voie intraveineuse 1 mn avant la perfusion d'aconitine, le COR37 05C entraine à 10 mg/kg 78 % (E), 87 % (T) et 83 % (M) d'activité et le COR37 06C à 5 mg/kg entraine 45 % (E), 39 % (T) et 79 % (M) d'activité. Administrés par voie orale 45 mn avant la perfusion d'aconitine à 100 mg/kg, le COR37 05C entraine 83 % (E), 99 % (T), 43 % (F) et 107 % (M) d'activité et le COR37 06C 25 % (E), 32 % (T), 29 % (F) et 105 % (M) d'activité. De plus le pourcentage d'animaux ne présentant pas de fibrilloflutters après administration de 100 mg/kg de COR37 05C et COR37 )6C par voie orale est respectivement de 70 et 60 %.

[13] = tested on: cornée de cobaye; assay: local anaesthetic activity, guinea pig cornea with tactile stimulus; assay type: in vivo; settings: concentration de 0,5 %
Text: L'activité anesthésique locale a été déterminée dans le test de la cornée de cobaye soumise à un stimulus tactile. Le COR37 06C employé à la concentration de 0,5 % est actif pendant 30 mn.

[14] = tested on: plasma riche en plaquettes (PRP) de lapin; assay: platelet aggregation in vitro induced by bovine collagen in rabbit PRP; assay type: cell-based; settings: 1 microg/ml, 0,05 ml de collagène bovin, read-out: inhibition de l'agrégation plaquettaire
Protocol: as §1

[15] = acute toxicity, intravenous administration; settings: mouse, in vivo, souris, voie intraveineuse, limits (53,8 - 59,5), read-out: DL50 (the source's name)
Protocol: as §2
Par voie intraveineuse le COR37 05C présente une DL50 de 56,6 mg/kg (53,8 - 59,5).

[16] = souris, anesthésie chloroformique profonde, administration intrapéritonéale
[17] = oreillette isolée de cobaye stimulée électriquement, in vitro
[18] = voie intraveineuse 1 mn avant la perfusion d'aconitine, 5 mg/kg
[19] = voie orale 45 mn avant la perfusion d'aconitine, 100 mg/kg
[20] = voie intraveineuse 1 mn avant la perfusion d'aconitine, 10 mg/kg

Compound Nc1ncnc2c1ncn2[C@@H]1O[C@H](CO)[C@@H](O)[C@H]1O [adénosine, reference compound] has an inhibition at 100 µg/mL [1] of 64%.
With CC(C)c1ccccc1NCC(O)CN(C)C (stereo not drawn) [COR37 49C, Dichlorhydrate de l'(isopropyl-2 anilino)-l diméthylamino-3 propanol-2] the mortality ([2]; 300 mg/kg) was 0%, the mortalité [3] was “aucune mortalité” and the activité anticalcique [4] was “inhibent l'augmentation de la force contractile”. The “diminution du cholestérol sérique” value [5] was 22%, the “multiplication de l'excrétion urinaire de sodium” value [6] was 2,2 and the inhibition at 25 µg/mL [7] was 50%. It also gave an inhibition at 25 µg/mL [8] of 80%.
For Cc1cccc(C(C)C)c1NCC(O)CNC(C)(C)C (stereo not drawn) [COR37 06C, Dichlorhydrate de l'(isopropyl-2 méthyl-6 anilino)-1 tertiobutylamino-3 propanol-2], the mortality ([2]; 100 mg/kg) was 0%, the mortality ([2]; 200 mg/kg) was 10% and the mortality ([2]; 250 mg/kg) was 10%. For the same compound, the mortality ([2]; 375 mg/kg) was 90%, the mortality ([2]; 500 mg/kg) was 100% and the LD50 ([2]; limits (261-332), read-out: DL50 (the source's name)) was 294 mg/kg. The mortality ([9]; 100 mg/kg) was 0%, the mortality ([9]; 200 mg/kg) was 100% and the minimal effective dose [10, 16] was 25 mg/kg. For the same compound, the IC30 [11, 17] was 7.26 µM, the “pourcentage d'augmentation de la quantité d'aconitine provoquant l'apparition d'extrasystoles (E)” value [12, 18] was 45% and the “pourcentage d'augmentation de la quantité d'aconitine provoquant l'apparition de morts (M)” value [12, 18] was 79%. For the same compound, the “pourcentage d'augmentation de la quantité d'aconitine provoquant l'apparition de tachycardies (T)” value [12, 18] was 39%, the “pourcentage d'augmentation de la quantité d'aconitine provoquant l'apparition d'extrasystoles (E)” value [12, 19] was 25% and the “pourcentage d'augmentation de la quantité d'aconitine provoquant l'apparition de fibrilloflutters (F)” value [12, 19] was 29%. The “pourcentage d'augmentation de la quantité d'aconitine provoquant l'apparition de morts (M)” value [12, 19] was 105%, the “pourcentage d'augmentation de la quantité d'aconitine provoquant l'apparition de tachycardies (T)” value [12, 19] was 32% and the “pourcentage d'animaux ne présentant pas de fibrilloflutters” value ([12]; 100 mg/kg) was 60%. For the same compound, the “durée d'activité anesthésique locale” value [13] was 30 mn and the inhibition at 1 µg/mL [14] was 100%.
With Cc1cccc(C(C)C)c1NCC(O)CN(C)C (stereo not drawn) [COR37 50C, Dichlorhydrate de l' (isopropyl-2 méthyl-6 anilino)-1 diméthylamino-3 propanol-2] the mortality ([2]; 300 mg/kg) was 0%, the mortalité [3] was “aucune mortalité” and the minimal effective dose [10, 16] was 100 mg/kg. For the same compound, the inhibition at 100 µg/mL [1] was 80% and the activité anticalcique [4] was “inhibent l'augmentation de la force contractile”.
For CC(C)c1ccccc1NCC(O)CNC(C)(C)C (stereo not drawn) [COR37 05C, Dichlorhydrate de l'(isopropyl-2 anilino)-1 tertiobutylamino-3 propanol-2], the mortality ([2]; 500 mg/kg) was 0%, the mortality ([2]; 750 mg/kg) was 40% and the mortality ([2]; 1000 mg/kg) was 40%. The mortality ([9]; 200 mg/kg) was 0%, the LD50 [15] was 56.6 mg/kg and the minimal effective dose [10, 16] was 25 mg/kg. The IC30 [11, 17] was 6.22 µM, the “pourcentage d'augmentation de la quantité d'aconitine provoquant l'apparition d'extrasystoles (E)” value [12, 20] was 78% and the “pourcentage d'augmentation de la quantité d'aconitine provoquant l'apparition de morts (M)” value [12, 20] was 83%. The “pourcentage d'augmentation de la quantité d'aconitine provoquant l'apparition de tachycardies (T)” value [12, 20] was 87%, the “pourcentage d'augmentation de la quantité d'aconitine provoquant l'apparition d'extrasystoles (E)” value [12, 19] was 83% and the “pourcentage d'augmentation de la quantité d'aconitine provoquant l'apparition de fibrilloflutters (F)” value [12, 19] was 43%. For the same compound, the “pourcentage d'augmentation de la quantité d'aconitine provoquant l'apparition de morts (M)” value [12, 19] was 107%, the “pourcentage d'augmentation de la quantité d'aconitine provoquant l'apparition de tachycardies (T)” value [12, 19] was 99% and the “pourcentage d'animaux ne présentant pas de fibrilloflutters” value ([12]; 100 mg/kg) was 70%.
Compound CCN(CC)CCOC(=O)c1ccc(N)cc1 [procaïne] has an IC30 [11, 17] of 10 µM.
Cc1ccc(NCC(O)CNC(C)(C)C)cc1 (stereo not drawn) [COR37 09C, Dichlorhydrate du (méthyl-4 anilino)-1 tertiobutylamino-3 propanol-2] showed a mortality ([2]; 300 mg/kg) of 0%, a mortality ([9]; 50 mg/kg) of 0% and a mortality ([9]; 100 mg/kg) of 100%. It also gave an inhibition at 100 µg/mL [1] of 79%.
In the case of C=C[C@H]1C[N@@]2CC[C@H]1C[C@@H]2[C@@H](O)c1ccnc2ccc(OC)cc12 [quinidine, reference compound], the minimal effective dose [10] is reported as 100 mg/kg and the IC30 [11] is reported as 4 µM.
Work on CC(C)NCC(O)COc1cccc2ccccc12 (stereo not drawn) [propranolol, reference compound] yielded a minimal effective dose [10] of 40 mg/kg and an IC30 [11] of 4.5 µM.
